Measured values reported in publication PMC4661079 (Bioorganic & medicinal chemistry, 2015).

Key:
TAK1 = biological target: T1, TAK1 (Homo sapiens, UniProt O43318); assay: in vitro TAK1 inhibition assay; assay type: biochemical; details: for TAK1 inhibitory activity, result in words: in vitro TAK1 inhibition
T1 sequence (O43318 1-303 limits assumed): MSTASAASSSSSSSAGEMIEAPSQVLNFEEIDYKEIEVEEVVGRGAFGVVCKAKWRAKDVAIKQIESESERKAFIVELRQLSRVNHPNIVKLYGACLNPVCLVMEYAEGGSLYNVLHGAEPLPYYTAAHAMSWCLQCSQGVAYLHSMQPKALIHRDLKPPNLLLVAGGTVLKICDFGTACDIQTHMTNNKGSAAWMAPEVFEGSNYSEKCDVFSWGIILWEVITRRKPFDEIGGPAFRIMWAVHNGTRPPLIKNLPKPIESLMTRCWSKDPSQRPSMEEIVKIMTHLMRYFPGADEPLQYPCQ
T1 sequence (Q15750 437-504 partner limits assumed): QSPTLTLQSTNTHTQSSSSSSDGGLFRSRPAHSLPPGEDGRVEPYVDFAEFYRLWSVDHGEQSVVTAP

85 kinases = details: 1 μM concentration; ref 14 (Wu et al.); cited from earlier work

| Structure (SMILES) | TAK1 inhibitory activity, result in words (TAK1) | also measured |
| --- | --- | --- |
| COc1cc(O)c2c(c1)/C=C/C[C@H](O)[C@H](O)[C@@H](O)/C=C/C[C@H](C)OC2=O [Compound 3, zeaenol] | loss of activity |  |
| COC1=CC(=O)C2=C(/C=C/C[C@H](O)[C@H](O)C(=O)/C=C\C[C@H](C)OC2=O)C1(F)F [Compound 11, (3S,5Z,8S,9S,11E)-13,13-Difluoro-8,9-dihydroxy-14-methoxy-3-methyl-3,4,9,10-tetrahydro-1H benzo[c][1]oxacyclotetradecine-1,7,16(8H,13H)-trione] | statistically equipotent to 1 | IC50 (TAK1): 77 nM |
| COc1cc(O)c2c(c1Br)/C=C/C[C@H](O)[C@H](O)C(=O)/C=C\C[C@H](C)OC2=O [Compound 13, (3S,5Z,8S,9S,11E)-13-Bromo-8,9,16-trihydroxy-14-methoxy-3-methyl-3,4,9,10-tetrahydro-1H-benzo[c][1]oxacyclotetradecine-1,7(8H)-dione] |  | times less active than difluoro derivative 11 (TAK1; TAK1 inhibition, compared with 11): 5 times |
| COc1cc(O)c2c(c1)/C=C/C[C@@H]1OC(C)(C)O[C@@H]1C(=O)/C=C\C[C@H](C)OC2=O [Compound 16, (3aS,5Z,8S,15E,17aS)-11-Hydroxy-13-methoxy-2,2,8-trimethyl-7,8,17,17a-tetrahydro-4H-benzo[c][1,3]dioxolo[4,5-h][1]oxacyclotetradecine-4,10(3aH)-dione] |  | reduction of TAK1 inhibitory activity relative to 1 (TAK1; compared with 1): more than 30 fold |
| COc1cc(O)c2c(c1)/C=C/C[C@H](O)[C@H](O)C(=O)/C=C\C[C@H](C)OC2=O [Compound 1, (5Z)-7-oxozeaenol] |  | number of kinases with at least 50% inhibition out of 85 kinases tested (85 kinases): 12 |
| COc1cc(O)cc2c1C(=O)O[C@@H](C)CCCCC/C=C/C(=O)C2 [Compound 8, greensborone C] | diminished activity |  |
| COc1cc(O)c2c(c1)/C=C/C[C@H](O)[C@H](O)C(=O)CCC[C@H](C)OC2=O [Compound 7, LL-Z164-1] | loss of activity |  |
| COc1cc(O)c2c(c1)[C@H]1O[C@@H]1C[C@H](O)[C@H](O)C(=O)CCC[C@H](C)OC2=O [Compound 5, dihydrohypothemycin] | loss of activity |  |
| CC=C/C=C\C(=O)[C@@H](O)[C@@H](O)C/C=C/c1cc(OC)cc(OC)c1C(=O)OC (stereo in doubt) [Compound 10, Methyl 2-((1E,4S,5S,7Z,9Z)-4,5-dihydroxy-6-oxoundeca-1,7,9-trien-1-yl)-4,6-dimethoxybenzoate] | inability |  |

Further lines, with some results ahead:

| TAK1 inhibitory activity, result in words (TAK1) | Structure (SMILES) | also measured |
| --- | --- | --- |
| least active | COc1c(Br)c(O)c2c(c1Br)/C=C/C[C@H](O)[C@H](O)C(=O)/C=C\C[C@H](C)OC2=O [Compound 14, (3S,5Z,8S,9S,11E)-13,15-Dibromo-8,9,16-trihydroxy-14methoxy-3-methyl-3,4,9,10-tetrahydro-1H-benzo[c][1]oxacyclotetradecine-1,7(8H)-dione] |  |
| significantly less active | COc1cc2c(c(O)c1Br)C(=O)O[C@@H](C)C/C=C\C(=O)[C@@H](O)[C@@H](O)C/C=C/2 [Compound 12, (3S,5Z,8S,9S,11E)-15-Bromo-8,9,16-trihydroxy-14-methoxy-3-methyl-3,4,9,10-tetrahydro-1H-benzo[c][1]oxacyclotetradecine-1,7(8H)-dione] |  |
